Tests used:
A375 cells = assay: Assay 2: A375 (BRAF) GI50 cell-based assay (Cell Titer-Glo); settings: Homo sapiens, A-375, 72 hours
Description: (§1) Alternatively, the following procedure can be used to measure cell-based activity. Test compounds were dissolved in DMSO in 10 mM stock. Cell Titer-Glo® 2.0 Luminescent cell viability assay reagent was purchased from Promega (Madison, WI). A375 and HCT116 cell lines were purchased from American Type Culture Collection (Manassas, VA). For A375 cells, cell culture media was DMEM+10% FBS. For HCT116 cells, cell culture media was McCoy's 5A+10% FBS. All media were supplemented with 100 μg/mL of penicillin, and 100 μg/mL of streptomycin. Cultures were maintained at 37° C. in a humidified atmosphere of 5% CO2 and 95% air.
(§2) Test compounds were diluted in DMSO solution with 10-dose and 3-fold dilutions in a source plate starting at 10 mM. 25 nL of each test compound was delivered from the source plate to each well of the 384-well cell culture plates (T=Final) by Echo 550. 25 μL of culture medium containing 2000 of A375 or HCT116 cells was added to each of the wells in duplicates of the cell culture plates (T=0 and T=Final). 25 μL of Cell Titer Glo 2.0 reagent was added to each well of cell culture plate (T=0). The contents were mixed on an orbital shaker for 2 min and incubated at room temperature for 15 min to stabilize luminescent signal. Luminescence was recorded by Envision 2104 Multilabel Reader (PerkinElmer, Santa Clara, CA). The number of viable cells in culture was determined based on quantitation of the ATP present in each culture well. The cells in cell culture plate (T=Final) were incubated with the compounds at 37° C., 5% CO2 for 72 hours. 25 μL of Cell Titer Glo 2.0 reagent was added to each well. The contents were mixed on an orbital shaker for 2 min and incubated at room temperature for 15 min to stabilize luminescent signal. Luminescence was recorded by Envision 2104 Multilabel Reader (PerkinElmer, Santa Clara, CA). The number of viable cells in culture was determined based on quantitation of the ATP present in each culture well. The GI50 curves were plotted using the GraphPad Prism 4 program based on a sigmoidal dose-response equation Y=Bottom+(Top-Bottom)/(1+10^((Log EC50−X)*HillSlope)). All parameters in the equation were calculated by GraphPad Prism 4 program. […] Accordingly, GI50 is the value of 10^X, where X was calculated by the Curve Fitting Equation when Y=50 using Excel.
Assay 2 is the A375 (BRAF) GI50 (nM) cell-based assay as described in Example 39. A2 indicates an IC50 of less than or equal to 1 μM, and B2 indicates an IC50 of greater than 1 μM and less than or equal to 2 μM.

MEK1 = MEK1 (Homo sapiens (Human), UniProt Q02750); assay: MEK Inhibition Assay-2 (Z'-LYTE biochemical assay); settings: Z'-LYTE assay of Example 37; read-out: IC50 against MEK1
MEK1, sequence (Q02750 whole entry): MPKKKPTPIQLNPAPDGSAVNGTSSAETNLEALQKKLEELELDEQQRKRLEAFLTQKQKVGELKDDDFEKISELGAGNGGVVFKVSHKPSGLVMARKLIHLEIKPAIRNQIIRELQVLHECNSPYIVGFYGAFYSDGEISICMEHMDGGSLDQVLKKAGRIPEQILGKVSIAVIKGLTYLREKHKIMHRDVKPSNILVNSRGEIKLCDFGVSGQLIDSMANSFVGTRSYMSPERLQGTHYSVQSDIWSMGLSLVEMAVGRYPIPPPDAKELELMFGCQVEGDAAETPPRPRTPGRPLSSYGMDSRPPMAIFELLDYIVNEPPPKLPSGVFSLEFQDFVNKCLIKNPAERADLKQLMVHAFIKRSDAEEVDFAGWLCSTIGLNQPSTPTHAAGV
Description: MEK1 inhibitory activity of compounds were tested using the following procedure (protocol available at thermofisher.com/content/dam/LifeTech/migration/files/drug-discovery/pdfs.par.60256.file.dat/20130430%20ssbk %20customer %20protocol %20 and %20assa y %20conditions.pdf). The Z′-LYTE biochemical assay (ThermoFisher) employs a fluorescence-based, coupled-enzyme format and is based on the differential sensitivity of phosphorylated and non-phosphorylated peptides to proteolytic cleavage.
Test compounds in 100% DMSO were screened in 1% DMSO (final) in the well. For 10 point titrations, 3-fold serial dilutions are conducted from the starting concentration of 30 μM.
After the 1 hour incubation, 5 μL of a 1:1024 dilution of Development Reagent A (available from Invitrogen, catalog no. PV3295) was added.
ATP solutions were diluted to a 4× working concentration in Kinase Buffer (50 mM HEPES pH 7.5, 0.01% BRIJ-35, 10 mM MgCl2, 1 mM EGTA). ATP Km apparent was previously determined using a Z′-LYTE assay. The Development Reagent was diluted in Development Buffer (available from Invitrogen, catalog no. P3127).
Assay Protocol: 2.5 μL of 4× test compound or 100 nL of 100× Test Compound plus 2.4 μL Kinase Buffer, 5 μL of the 2× Peptide/Kinase Mixture, 2.5 μL of 4×ATP Solution were added to the plates and placed on a shake plate for 30-seconds. The kinase reaction was allowed to proceed for 60-minute at room temperature, before 5 μL of Development Reagent Solution was added, and the mixture agitated for 30-seconds on a shake plate. The mixture was incubated for 60-minute at room temperature. Fluorescence was measured using a plate reader and the data were analyzed.
This control yielded 100% cleaved peptide in the Development Reaction. The 100% Phosphorylation Control, which consisted of a synthetically phosphorylated peptide of the same sequence as the peptide substrate, was designed to allow for the calculation of percent phosphorylation. This control yielded a very low percentage of cleaved peptide in the Development Reaction. The 0% Phosphorylation and 100% Phosphorylation Controls allow for the calculation of the percent phosphorylation achieved in a specific reaction well.
The minimum emission ratio in a screen was established by the 0% Inhibition Control, which contained active kinase. This control was designed to produce a 10-50% phosphorylated peptide in the Kinase Reaction. Cascade assays may produce up to 70% phosphorylated peptide.
A known inhibitor control standard curve, 10 point titration, was run for each individual kinase on the same plate as the kinase to ensure the kinase was inhibited within an expected IC50 range previously determined.
The following controls are prepared for each concentration of Test Compound assayed. […] The expected value for a non-interfering compound should be 100%. Any value outside of 90% to 110% was flagged. […] The expected value for a non-fluorescence compound should be 0%. Any value>20% was flagged.
The data in Table A was calculated. XLfit from IDBS was used. The dose response curve was curve fit to model number 205 (sigmoidal dose-response model).
Table 3 lists the MEK1 inhibition assay results of selected compounds according to the above procedure.

HCT116 cells = assay: Assay 3: HCT116 (Kras) GI50 assay (Cell Titer-Glo); assay type: cell-based; settings: Homo sapiens, HCT-116, 72 hours
Description: as §1, §2
Assay 3 is the HCT116 (Kras) GI50 (nM) assay as described in Example 39. A3 indicates an IC50 of less than or equal to 5 μM, and B3 indicates an IC50 of greater than 5 μM and less than or equal to 10 μM.

GI50 (A375 cells): ≤ 1000 nM | IC50 (MEK1): ≤ 150 nM | GI50 (HCT116 cells): ≤ 5000 nM
Compound: O=C1CCCc2c1sc(Nc1ccc(I)cc1F)c2C(=O)NOCCO [Compound 1.029, 2-((2-Fluoro-4-iodophenyl)amino)-N-(2-hydroxyethoxy)-7-oxo-4,5,6,7-tetrahydrobenzo[b]thiophene-3-carboxamide]

— patent US12466818B2, “Thienyl-aniline compounds for treatment of dermal disorders” (NFlection Therapeutics, Inc., priority 2018, dated 2025)
